Literature values, collected in patent US8940506B2, “High-sensitive fluorescent energy transfer assay using fluoresent amino acids and fluorescent proteins” (The Regents of the University of California, priority 2008, dated 2015).

Test system: cancer cells
Settings: by disrupting the interaction of ubiquitin E3 ligase MDM2 and its substrate p53

SMILES: COc1ccc(C2=N[C@@H](c3ccc(Cl)cc3)[C@@H](c3ccc(Cl)cc3)N2C(=O)N2CCNC(=O)C2)c(OC(C)C)c1 [Nutlin-3]
- apoptosis and growth inhibition of cancer cells: induce apoptosis and growth inhibition of cancer cells
